Measurements from ChEMBL document CHEMBL1201862, “PubChem BioAssay data set” (2004).
The source made the active and inactive calls.

Legend:
[1] = cytotoxicity in COV434 cells, dose response, cytotoxicity control for PAX8 inhibitor project, cell-based, plate reader, dry powder, SA7 (AID 743145); type: functional
[2] = test system: Streptococcus; experiment: Group A Streptococcus viability loss, dose response, counter-screen for streptokinase expression inhibitor project, luminescence, BacTiterGlo (AID 1915); type: functional, organism-based;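 also: potency for reduction of bacterial viability or growth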
[3] = Luminescence-based dose response cell-based high throughput screening assay for cytotoxic compounds using the IEC-6 intestinal epithelial cell line. [Related pubchem assays: 1858 (Summary AID.), 1825 (Counterscreen.), 1907 (Confirmation screen.)]; type: functional
[4] = PAX2 cell-based inhibition, dose response, selectivity assay for PAX8 inhibitor project, plate reader, dry powder samples (AID 743048); type: functional;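 also: HEK293 cells carrying a WT1 promoter luciferase reporter driven by expressed Pax2; potency is for inhibition of Pax2 driven reporter signal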
[5] = A2780 ovarian cancer cell cytotoxicity, dose response, cytotoxicity control, plate reader, dry powder samples (AID 743046); type: functional, cell-based
[6] = test system: HEK293; experiment: SAR Analysis of small molecule inhibitors of both B-cell and T-cell specific antigen receptor-induced NF-kB activation in a HEK-293T cell line using a luminescence assay. [Related pubchem assays (depositor defined):AID435003, AID435022, AID465, AID489019, AID489029]; type: functional, cell-based; conditions: Homo sapiens
[7] = test system: BJ; experiment: cytotoxicity toward BJ-TERT fibroblasts, dose response, cell-based, RAS-independent, luminescence (AID 1933); type: functional; conditions: Homo sapiens
[8] = test system: BJ; experiment: cells; type: functional, cell-based; conditions: Homo sapiens
[9] = cytotoxicity in OV-90 ovarian cancer cells, dose response, PAX8 inhibitor project, cell-based, plate reader, dry powder, SA8 (AID 743149); type: functional
[10] = IGROV1 ovarian cancer cell cytotoxicity, dose response, PAX8 inhibitor project, plate reader, dry powder samples (AID 743043); type: functional, cell-based; conditions: IGROV-1
[11] = target: T1, Streptokinase A (Streptococcus pyogenes serotype M1, UniProt P10520); experiment: S. pyogenes streptokinase expression inhibitors, potency, dose response, plasminogen activation absorbance, OD405 (AID 1914); type: functional, Streptococcus pyogenes M1 GAS;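 also: secreted streptokinase activity via plasminogen activation per viability signal from cell pellet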
T1 sequence (P10520 whole entry): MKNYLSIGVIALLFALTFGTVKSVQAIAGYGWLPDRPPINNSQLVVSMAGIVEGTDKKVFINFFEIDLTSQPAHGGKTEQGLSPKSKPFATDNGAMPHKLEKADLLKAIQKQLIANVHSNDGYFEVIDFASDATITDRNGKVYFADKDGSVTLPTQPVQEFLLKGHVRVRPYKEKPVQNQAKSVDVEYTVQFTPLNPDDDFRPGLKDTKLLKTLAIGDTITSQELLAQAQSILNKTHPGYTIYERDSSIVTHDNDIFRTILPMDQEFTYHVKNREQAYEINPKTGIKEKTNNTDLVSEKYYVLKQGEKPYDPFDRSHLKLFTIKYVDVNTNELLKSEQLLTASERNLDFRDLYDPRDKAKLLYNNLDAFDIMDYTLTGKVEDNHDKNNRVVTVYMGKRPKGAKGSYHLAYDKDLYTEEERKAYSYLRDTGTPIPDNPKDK

[12] = target: T2, Type-1 angiotensin II receptor (Homo sapiens, UniProt P30556); experiment: AT1 receptor antagonists, dose response, selectivity assay for APJ receptor antagonist project, cell-based, uHTS hits (AID 463214); type: functional;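 also: antagonist potency against angiotensin II stimulated AT1 response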
T2 sequence (P30556 whole entry): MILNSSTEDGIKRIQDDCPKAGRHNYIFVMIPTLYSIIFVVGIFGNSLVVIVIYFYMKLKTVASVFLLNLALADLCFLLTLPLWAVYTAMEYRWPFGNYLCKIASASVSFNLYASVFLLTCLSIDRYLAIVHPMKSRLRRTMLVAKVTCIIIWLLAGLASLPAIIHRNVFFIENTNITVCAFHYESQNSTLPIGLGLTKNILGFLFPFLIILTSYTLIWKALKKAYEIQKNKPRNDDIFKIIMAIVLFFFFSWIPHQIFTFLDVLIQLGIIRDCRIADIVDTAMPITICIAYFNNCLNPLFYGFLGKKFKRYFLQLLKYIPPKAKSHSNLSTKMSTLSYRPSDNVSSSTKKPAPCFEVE

[13] = cytotoxicity in COV362 ovarian cancer cells, dose response, cytotoxicity control for PAX8 inhibitor project, cell-based, plate reader, dry powder, SA12 (AID 743144); type: functional
[14] = non-specific cell cytotoxicity, dose response, cytotoxicity control for PAX8 inhibitor project, plate reader, dry powder samples (AID 743021); type: functional, cell-based
[15] = test system: Jurkat; experiment: SAR Analysis of small molecule inhibitors of both B-cell and T-cell specific antigen receptor-induced NF-kB activation in a Jurkat cell line using a luminescence assay. [Related pubchem assays (depositor defined):AID435003, AID435022, AID465, AID489029]; type: functional, cell-based; conditions: Homo sapiens
[16] = test system: BJ; experiment: cytotoxicity toward BJ-TERT-LT-ST fibroblasts, dose response, cell-based, RAS-independent, luminescence (AID 1935); type: functional; conditions: Homo sapiens;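 also: BJ fibroblasts immortalized with TERT plus LT and ST oncogenes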
[17] = cytotoxicity toward DRD oncogenic fibroblasts, dose response, cell-based, non-viral oncogenic, luminescence (AID 1934); type: functional; conditions: Homo sapiens
[18] = IOSE-T80 ovarian epithelial cell cytotoxicity, dose response, cytotoxicity control for PAX8 inhibitor project, plate reader, dry powder samples (AID 743045); type: functional, cell-based
[19] = test system: HEK293; experiment: cytotoxicity in HEK293T NF-kB-Luc cells, SAR follow-up, cytotoxicity control for NF-kB activator project, cell-based, resazurin fluorescence (AID 493251); type: functional; conditions: Homo sapiens
[20] = target: Paired box protein Pax-8 (Homo sapiens, UniProt Q06710); experiment: inhibitors of PAX8-driven TPO luciferase reporter, dose response, RMG-I cells, cherry-pick (AID 687027); type: functional, cell-based;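 also: luciferase reporter driven by Pax8 target thyroperoxidase promoter measured by SteadyGlo luminescence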
Sequence of Paired box protein Pax-8 (Q06710 whole entry): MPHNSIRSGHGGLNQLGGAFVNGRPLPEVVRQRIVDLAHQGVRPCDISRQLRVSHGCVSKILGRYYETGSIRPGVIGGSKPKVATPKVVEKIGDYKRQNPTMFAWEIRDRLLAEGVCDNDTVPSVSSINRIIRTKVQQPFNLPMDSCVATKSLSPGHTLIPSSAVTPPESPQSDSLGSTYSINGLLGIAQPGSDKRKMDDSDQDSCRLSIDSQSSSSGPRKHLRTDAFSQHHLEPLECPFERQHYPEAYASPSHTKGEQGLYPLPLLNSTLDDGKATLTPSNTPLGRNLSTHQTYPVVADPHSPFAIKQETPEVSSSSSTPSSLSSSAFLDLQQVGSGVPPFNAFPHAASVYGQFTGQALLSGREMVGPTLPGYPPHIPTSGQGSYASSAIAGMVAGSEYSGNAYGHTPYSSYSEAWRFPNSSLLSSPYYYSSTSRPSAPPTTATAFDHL

[21] = test system: Streptococcus sp. 'group A'; experiment: growth inhibition of control SK(-) GAS strain, dose response, counter-screen for streptokinase expression inhibitor project, luminescence, kanamycin, BacTiterGlo, confirmation (AID 1900); type: functional, organism-based
[22] = cytotoxicity in OVCAR4 cells, dose response, cytotoxicity control for PAX8 inhibitor project, cell-based, plate reader, dry powder, SA11 (AID 743150); type: functional; conditions: OVCAR-4
[23] = cytotoxicity in HEK-293T cells, dose response, cytotoxicity control for TCR NF-kB inhibitor project, luminescence, T-cell screen hits (AID 489026); type: functional, cell-based;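 also: cells exposed to compound about 14 hours before the viability readout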
[24] = cytotoxicity dependent on PAX8, dose response, cell-based, plate reader, dry powder (AID 743049); type: functional
[25] = test system: BJ; experiment: cytotoxicity toward Ras-transformed BJeLR fibroblasts, dose response, cell-based, alamar blue fluorescence, cherrypicked samples (AID 2631); type: functional; conditions: Homo sapiens;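 also: confirmatory dose-response assay in RAS-dependent BJ fibroblasts engineered with TERT, LT and ST, with cytotoxicity read by fluorescence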
[26] = target: Beta-galactosidase (Escherichia coli, UniProt Q8VNN2); experiment: PubChem AID 485352; type: functional
Sequence of Beta-galactosidase (Q8VNN2 whole entry): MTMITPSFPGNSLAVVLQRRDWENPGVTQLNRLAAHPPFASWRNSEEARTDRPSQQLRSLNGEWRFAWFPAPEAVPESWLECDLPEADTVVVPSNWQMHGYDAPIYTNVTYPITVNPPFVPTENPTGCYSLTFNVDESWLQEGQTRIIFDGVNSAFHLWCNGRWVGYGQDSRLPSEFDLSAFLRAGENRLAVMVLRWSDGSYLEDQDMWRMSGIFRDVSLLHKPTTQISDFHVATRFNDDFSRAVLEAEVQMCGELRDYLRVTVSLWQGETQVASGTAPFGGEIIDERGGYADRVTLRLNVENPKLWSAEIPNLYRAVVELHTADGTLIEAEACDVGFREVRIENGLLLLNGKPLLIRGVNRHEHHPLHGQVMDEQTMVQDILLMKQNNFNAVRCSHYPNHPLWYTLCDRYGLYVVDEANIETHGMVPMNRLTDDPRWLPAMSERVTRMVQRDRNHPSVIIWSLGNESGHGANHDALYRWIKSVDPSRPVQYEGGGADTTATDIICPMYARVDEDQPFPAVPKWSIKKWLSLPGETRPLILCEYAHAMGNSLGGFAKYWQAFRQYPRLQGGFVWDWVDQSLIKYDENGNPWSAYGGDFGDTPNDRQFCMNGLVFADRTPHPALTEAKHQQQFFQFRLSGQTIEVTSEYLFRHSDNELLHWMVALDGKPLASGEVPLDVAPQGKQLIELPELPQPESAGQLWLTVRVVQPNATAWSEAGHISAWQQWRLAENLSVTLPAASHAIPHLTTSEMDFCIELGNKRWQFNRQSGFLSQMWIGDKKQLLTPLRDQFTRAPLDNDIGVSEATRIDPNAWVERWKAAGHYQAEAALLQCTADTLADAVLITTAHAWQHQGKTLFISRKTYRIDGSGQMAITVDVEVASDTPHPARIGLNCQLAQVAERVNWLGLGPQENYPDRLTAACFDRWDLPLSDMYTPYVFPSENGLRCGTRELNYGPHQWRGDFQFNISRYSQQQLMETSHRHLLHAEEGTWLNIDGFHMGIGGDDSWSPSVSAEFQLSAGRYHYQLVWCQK

[27] = target: Dual specificity protein kinase CLK1 (Homo sapiens, UniProt P49759); experiment: CLK1 kinase inhibitors, off-target check, dose response, selectivity assay for Dyrk1A inhibitor project, biochemical, cherry-picked samples (AID 588811)
Sequence of Dual specificity protein kinase CLK1 (P49759 whole entry): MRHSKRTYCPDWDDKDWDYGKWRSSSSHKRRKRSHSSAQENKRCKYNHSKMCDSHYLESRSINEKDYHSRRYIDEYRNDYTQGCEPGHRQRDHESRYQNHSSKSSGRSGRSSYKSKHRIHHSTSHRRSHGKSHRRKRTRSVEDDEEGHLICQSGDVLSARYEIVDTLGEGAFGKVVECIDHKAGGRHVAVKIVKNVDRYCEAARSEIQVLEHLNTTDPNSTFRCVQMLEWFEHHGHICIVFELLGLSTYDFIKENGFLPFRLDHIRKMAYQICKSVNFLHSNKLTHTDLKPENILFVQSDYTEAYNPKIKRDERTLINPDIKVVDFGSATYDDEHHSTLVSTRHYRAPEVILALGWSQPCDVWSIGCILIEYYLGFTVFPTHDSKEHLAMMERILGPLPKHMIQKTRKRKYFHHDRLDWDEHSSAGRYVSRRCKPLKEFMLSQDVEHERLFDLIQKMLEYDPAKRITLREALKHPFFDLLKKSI

[28] = cytotoxicity toward NIH3T3 fibroblasts, dose response, counter-screen, cell-based, ATP luminescence, mouse fibroblasts (AID 2010); type: functional;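 also: cells exposed to compound for about 90 hours before reading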
[29] = inhibitors of firefly luciferase expression or activity, dose response, H4 neuroglioma cells, luminescence (AID 1990); type: functional, cell-based
[30] = inhibitors of SNCA 5'UTR-driven reporter translation, confirmation, H4 neuroglioma cells, luminescence (AID 1988); type: functional, cell-based
[31] = Luminescence Cell-Based Dose Response HTS to Identify Inhibitors of 5'UTR Stem-Loop Driven Prion Protein mRNA Translation in H4 Neuroglioblastoma Cells. [Related pubchem assays: 1827 (Project Summary), 1813 (Primary HTS)]; type: functional
[32] = inhibitors of intracellular T. cruzi replication, confirmation, NIH3T3 host cells, beta-gal luminescence (AID 2044); type: functional, cell-based;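 also: intracellular parasites grown in NIH/3T3 mouse fibroblasts as host cells; luminescent beta-galactosidase reporter signal from transgenic T. cruzi replicating inside host cells; inhibitors lower the luminescence signal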
[33] = target: DNA topoisomerase (Yersinia pestis, UniProt A0A2S9PM60); experiment: Y. pestis Topo-I inhibitors, cleavage product readout, dose response, biochemical, cherry-pick (AID 588525)
[34] = target: CAAX prenyl protease 2 (Homo sapiens, UniProt Q9Y256); experiment: human Rce1 protease inhibitors, dose response, biochemical, plate reader, dry powder samples (AID 588848)
Sequence of CAAX prenyl protease 2 (Homo sapiens, UniProt Q9Y256) (Q9Y256 whole entry): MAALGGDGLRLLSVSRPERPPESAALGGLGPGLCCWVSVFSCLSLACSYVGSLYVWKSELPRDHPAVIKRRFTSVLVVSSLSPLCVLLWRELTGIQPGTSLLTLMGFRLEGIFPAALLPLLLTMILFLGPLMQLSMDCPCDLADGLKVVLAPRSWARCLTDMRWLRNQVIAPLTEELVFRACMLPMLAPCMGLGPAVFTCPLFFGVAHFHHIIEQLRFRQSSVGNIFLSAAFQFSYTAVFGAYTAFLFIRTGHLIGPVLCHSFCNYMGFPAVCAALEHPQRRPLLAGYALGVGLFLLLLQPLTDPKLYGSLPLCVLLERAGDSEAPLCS

[35] = target: T3, CAAX prenyl protease 2 (Saccharomyces cerevisiae S288c, UniProt Q03530); type: biochemical
T3 sequence (Q03530 whole entry): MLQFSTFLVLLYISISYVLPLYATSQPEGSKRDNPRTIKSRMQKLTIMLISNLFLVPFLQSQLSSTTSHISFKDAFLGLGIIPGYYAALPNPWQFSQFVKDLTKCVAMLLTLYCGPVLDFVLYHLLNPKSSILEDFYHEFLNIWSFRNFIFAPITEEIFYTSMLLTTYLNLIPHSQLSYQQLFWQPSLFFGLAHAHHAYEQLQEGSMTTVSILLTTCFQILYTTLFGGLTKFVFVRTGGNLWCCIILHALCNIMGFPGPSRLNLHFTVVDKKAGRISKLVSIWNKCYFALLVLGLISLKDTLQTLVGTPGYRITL

[36] = target: T3, CAAX prenyl protease 2; experiment: yeast Rce1 CaaX protease inhibitors, dose response, biochemical, plate reader, dry powder retest (AID 588851)
[37] = target: T4, Beta-2 adrenergic receptor (Homo sapiens, UniProt P07550); experiment: Dose response for HTS for Beta-2AR agonists via FAP method from Powderset1.; type: functional
T4 sequence (P07550 whole entry): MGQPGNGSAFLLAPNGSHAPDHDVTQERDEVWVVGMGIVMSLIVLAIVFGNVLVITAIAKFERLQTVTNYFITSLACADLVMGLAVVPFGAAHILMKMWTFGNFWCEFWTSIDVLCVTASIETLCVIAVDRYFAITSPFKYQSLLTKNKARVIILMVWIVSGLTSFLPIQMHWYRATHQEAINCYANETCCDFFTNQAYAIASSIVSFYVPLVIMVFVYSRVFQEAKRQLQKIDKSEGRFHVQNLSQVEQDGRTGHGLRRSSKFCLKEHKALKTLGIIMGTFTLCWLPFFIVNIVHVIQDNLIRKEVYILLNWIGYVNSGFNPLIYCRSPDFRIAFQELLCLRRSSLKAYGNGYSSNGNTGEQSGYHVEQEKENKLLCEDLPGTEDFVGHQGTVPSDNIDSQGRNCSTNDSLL

[38] = target: T4, Beta-2 adrenergic receptor; experiment: beta2AR agonists driving receptor internalization, dose response, cell-based, FAP fluorogen, flow cytometry, cherry pick 1 (AID 588763); type: functional
[39] = THP-1 cell cytotoxicity, cytotoxicity control, set 6 (AID 602433); type: functional; conditions: Mycobacterium tuberculosis
[40] = target: Large T antigen (Simian virus 40, UniProt P03070); type: functional, Betapolyomavirus macacae;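 also: Confirmatory-stage PubChem screen for compounds that inhibit SV40 T antigen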
Sequence of Large T antigen (P03070 whole entry): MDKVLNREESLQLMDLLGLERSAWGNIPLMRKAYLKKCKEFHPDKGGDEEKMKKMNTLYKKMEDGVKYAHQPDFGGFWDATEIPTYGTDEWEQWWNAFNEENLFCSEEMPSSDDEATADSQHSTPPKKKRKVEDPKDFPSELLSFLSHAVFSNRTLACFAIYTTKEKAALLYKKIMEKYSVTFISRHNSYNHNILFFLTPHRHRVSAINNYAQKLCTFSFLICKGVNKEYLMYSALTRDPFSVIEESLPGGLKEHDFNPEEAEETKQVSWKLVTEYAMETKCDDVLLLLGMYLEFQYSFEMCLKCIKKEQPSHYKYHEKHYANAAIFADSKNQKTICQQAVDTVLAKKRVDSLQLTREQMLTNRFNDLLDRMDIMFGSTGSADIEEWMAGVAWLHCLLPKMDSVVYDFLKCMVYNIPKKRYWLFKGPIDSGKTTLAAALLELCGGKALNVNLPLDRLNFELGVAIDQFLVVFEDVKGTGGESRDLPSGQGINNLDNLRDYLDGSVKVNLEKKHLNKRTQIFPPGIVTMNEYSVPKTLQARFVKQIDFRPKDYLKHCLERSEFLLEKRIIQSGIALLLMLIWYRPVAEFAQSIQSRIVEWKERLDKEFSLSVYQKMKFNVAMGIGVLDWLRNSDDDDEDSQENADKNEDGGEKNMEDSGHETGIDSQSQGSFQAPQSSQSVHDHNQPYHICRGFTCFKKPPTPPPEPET

[41] = target: E3 ubiquitin-protein ligase XIAP (Homo sapiens, UniProt P98170); experiment: Counter Screen using XIAP-Bir3 for Chemical Antagonists of Bir1/2 domains of IAP-family anti-apoptotic proteins. [Related pubchem assays (depositor defined):AID1018, AID1449, AID1514, AID1638, AID1749, AID1750, AID488957, AID488963]
[42] = NIH-3T3 fibroblast cytotoxicity, dose response, cytotoxicity control, cell-based, fluorescence, Alamar Blue, secondary assay (AID 2327); type: functional;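 also: NIH-3T3 mouse fibroblasts cultured with fluconazole at 8 µg/mL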
[43] = target: Beta-adrenergic receptor kinase 1 (Homo sapiens, UniProt P25098); experiment: aptamer displacement from bead-bound GRK2 – biochemical, cherry pick 1, bead flow cytometry, dose response (AID 504500)
Sequence of Beta-adrenergic receptor kinase 1 (P25098 whole entry): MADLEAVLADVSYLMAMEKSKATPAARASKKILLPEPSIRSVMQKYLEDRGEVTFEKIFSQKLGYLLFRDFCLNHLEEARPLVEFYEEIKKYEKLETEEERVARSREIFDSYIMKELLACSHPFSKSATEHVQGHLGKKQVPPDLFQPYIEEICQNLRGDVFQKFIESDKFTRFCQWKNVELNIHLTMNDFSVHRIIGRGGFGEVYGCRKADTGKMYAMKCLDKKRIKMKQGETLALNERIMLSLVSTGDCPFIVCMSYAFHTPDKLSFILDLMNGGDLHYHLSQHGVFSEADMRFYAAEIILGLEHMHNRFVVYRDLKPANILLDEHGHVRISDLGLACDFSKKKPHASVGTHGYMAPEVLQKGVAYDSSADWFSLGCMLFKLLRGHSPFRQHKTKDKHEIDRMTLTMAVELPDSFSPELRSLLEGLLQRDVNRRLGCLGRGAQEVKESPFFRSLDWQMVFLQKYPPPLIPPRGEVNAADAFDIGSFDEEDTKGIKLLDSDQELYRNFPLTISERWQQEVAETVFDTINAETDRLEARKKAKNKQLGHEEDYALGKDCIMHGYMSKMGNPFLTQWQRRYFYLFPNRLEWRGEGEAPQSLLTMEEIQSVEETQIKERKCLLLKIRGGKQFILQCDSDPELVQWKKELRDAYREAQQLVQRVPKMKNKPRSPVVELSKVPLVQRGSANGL

[44] = C. albicans growth with fluconazole, confirmation, fluorescence, retest (AID 2467); type: functional, cell-based
[45] = target: Aryl hydrocarbon receptor (Homo sapiens, UniProt P35869); conditions: Potency;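 also: confirmatory quantitative high-throughput screen measuring activation of the AhR signaling pathway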
Sequence of Aryl hydrocarbon receptor (P35869 whole entry): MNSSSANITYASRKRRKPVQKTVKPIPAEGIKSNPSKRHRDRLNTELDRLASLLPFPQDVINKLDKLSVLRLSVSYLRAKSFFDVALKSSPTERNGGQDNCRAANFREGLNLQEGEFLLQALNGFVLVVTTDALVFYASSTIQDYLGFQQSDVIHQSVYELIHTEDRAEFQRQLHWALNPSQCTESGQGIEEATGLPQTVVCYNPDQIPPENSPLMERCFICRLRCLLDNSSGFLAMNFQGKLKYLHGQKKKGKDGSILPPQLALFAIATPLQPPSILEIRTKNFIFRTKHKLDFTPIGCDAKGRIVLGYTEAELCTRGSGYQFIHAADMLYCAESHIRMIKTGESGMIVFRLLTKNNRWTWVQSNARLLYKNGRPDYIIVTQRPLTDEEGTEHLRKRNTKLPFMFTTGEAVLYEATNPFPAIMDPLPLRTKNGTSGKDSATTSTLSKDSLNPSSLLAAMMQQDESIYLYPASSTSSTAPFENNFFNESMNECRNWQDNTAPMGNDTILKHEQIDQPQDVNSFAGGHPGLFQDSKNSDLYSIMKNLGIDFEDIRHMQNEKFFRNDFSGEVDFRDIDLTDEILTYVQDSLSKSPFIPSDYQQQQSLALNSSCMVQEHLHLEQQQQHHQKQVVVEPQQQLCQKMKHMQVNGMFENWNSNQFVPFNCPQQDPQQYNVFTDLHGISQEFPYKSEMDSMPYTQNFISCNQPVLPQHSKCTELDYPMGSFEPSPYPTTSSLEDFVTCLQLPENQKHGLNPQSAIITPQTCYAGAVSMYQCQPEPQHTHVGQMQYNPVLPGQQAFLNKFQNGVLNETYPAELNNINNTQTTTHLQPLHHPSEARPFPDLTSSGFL

[46] = target: Voltage-gated inwardly rectifying potassium channel KCNH2 (Homo sapiens, UniProt Q12809); conditions: Potency;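 also: confirmatory quantitative high-throughput screen measuring inhibition of hERG channel activity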

Cc1ccc2cccc(NS(=O)(=O)c3ccccc3)c2n1
inactive: IC50 [6] > 79 µM | IC50 [19] > 80 µM | IC50 [23] > 80 µM | EC50 [26] > 40 µM
> 150 µM (not active): EC50 [2] | EC50 [11] | EC50 [16]
active: AC50 [1] 10.7 µM | IC50 [3] 0.589 µM | AC50 [4] 49.5 µM | AC50 [5] 20.5 µM | EC50 [7] 37.9 µM | EC50 [8] 17.8 µM | AC50 [9] 5.65 µM | AC50 [10] 14 µM | IC50 [12] 2.35 µM | AC50 [13] 8.75 µM | AC50 [14] 44 µM | IC50 [15] 1.21 µM | EC50 [17] 21.6 µM | AC50 [18] 17.3 µM | AC50 [20] 5.74 µM | EC50 [21] 5.1 µM | AC50 [22] 21.1 µM | AC50 [24] 15.6 µM | EC50 [25] 5.74 µM

CN(C)c1ccc(-c2nccc(NCc3cccs3)n2)cc1
active: AC50 [27] 0.265 µM

O=C(CSc1nnc(COc2ccc(Cl)cc2)o1)N1c2ccccc2CCc2ccccc21
active: EC50 [29] 23.5 µM | EC50 [30] 15.2 µM | EC50 [31] 21.5 µM | EC50 [32] 0.625 µM | AC50 [33] 10.2 µM
inconclusive: EC50 [28] < 6 µM

CC(C)c1c(C(=O)N/N=C/c2c[nH]c3ccccc23)nnn1-c1nonc1N
active: AC50 [34] 29.3 µM | AC50 [35] 0.298 µM | AC50 [36] 3.14 µM

CSc1ccc(CN2CCC(Oc3ccc(C(=O)N4CCCC4)cc3)CC2)cc1
active: EC50 [37] 0.348 µM | EC50 [38] 1.39 µM

O=C(CSc1nc2ccccc2c(=O)[nH]1)NC1CCOCC1
inconclusive: CC50 [39] > 100 µM

O=S(=O)(O)c1cc(O)c2c(O)c(N=Nc3cc(Cl)ccc3O)c(S(=O)(=O)O)cc2c1
inactive: IC50 [41] > 20 µM | EC50 [42] > 150 µM | EC50 [43] 16.3 µM
active: IC50 [40] 13.4 µM | EC50 [29] 13.1 µM | EC50 [30] 14.8 µM
> 38 µM (not active): EC50 [44]

COP(=S)(OC)Oc1ccc(SC)c(C)c1 [FENTHION]
inconclusive: AC50 [45] 50.1 µM | AC50 [46] 22.4 µM
